By IC50 is commonly meant the concentration at which inhibition is half-maximal. Usually inhibition stands for the share of the control response that was lost under treatment.

The experiment concerns the target recombinant human His-ATG7 enzyme (Homo sapiens (Human), UniProt O95352). The experiment is described as follows: ATG7 Enzyme Assay (HTRF/FRET, ATG3-GST and Flag-Gabarap). It counts as biochemical. Conditions: for inhibition at 0.111 µM: Concentration 0.111 μM; for inhibition at 0.123 µM: Concentration 0.123 μM. Summed up:
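0.15 nM His-ATG7 was reacted with 5 nM ATG3-GST, 5 nM Flag-Gabarap and 10 μM ATP in HEPES pH 7.5 containing MgCl2, GSH and TCEP for 105 min at 24° C, then stopped with EDTA/KF. Eu-anti-Flag and anti-GST-APC HTRF was read after 2 h. Results are given as single-concentration % inhibition or IC50.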

recombinant human His-ATG7 enzyme, sequence (O95352 whole entry): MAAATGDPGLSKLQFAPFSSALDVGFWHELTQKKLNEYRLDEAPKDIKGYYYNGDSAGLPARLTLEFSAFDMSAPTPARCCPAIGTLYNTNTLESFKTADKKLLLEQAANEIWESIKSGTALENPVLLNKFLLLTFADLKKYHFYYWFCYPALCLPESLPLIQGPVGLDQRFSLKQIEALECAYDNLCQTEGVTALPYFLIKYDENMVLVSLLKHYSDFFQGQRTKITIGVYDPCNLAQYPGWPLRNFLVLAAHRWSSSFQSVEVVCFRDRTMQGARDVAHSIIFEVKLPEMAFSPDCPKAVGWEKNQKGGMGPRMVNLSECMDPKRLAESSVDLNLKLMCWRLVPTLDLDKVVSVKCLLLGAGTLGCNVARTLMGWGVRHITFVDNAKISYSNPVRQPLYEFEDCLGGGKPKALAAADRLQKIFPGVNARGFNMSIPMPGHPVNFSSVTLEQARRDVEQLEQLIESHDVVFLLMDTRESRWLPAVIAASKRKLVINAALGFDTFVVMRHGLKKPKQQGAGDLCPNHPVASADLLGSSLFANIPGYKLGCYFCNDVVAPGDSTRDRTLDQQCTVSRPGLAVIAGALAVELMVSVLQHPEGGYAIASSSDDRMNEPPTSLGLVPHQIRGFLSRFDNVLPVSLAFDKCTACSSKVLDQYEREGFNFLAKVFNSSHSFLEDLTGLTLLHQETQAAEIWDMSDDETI

As to `Nc1ncnc2c1c(C1CC1)nn2[C@@H]1O[C@H](COS(N)(=O)=O)[C@@H](O)[C@@H]1F` [Compound I-108, [(2R,3R,4S,5R)-5-(4-amino-3-cyclopropyl-1H-pyrazolo[3,4-d]pyrimidin-1-yl)-4-fluoro-3-hydroxytetrahydrofuran-2-yl]methyl sulfamate], the half-inhibitory concentration (IC50) was above 500 nM. Also, the inhibition at 0.111 µM (read-out: Percent Inhibition) was 19%.
As for `Nc1ncnc2c1c(SC1CCCC1O)nn2[C@@H]1O[C@H](COS(N)(=O)=O)[C@@H](O)[C@H]1O` (mixture of isomers) [Compound I-54, [(2R,3S,4R,5R)-5-(4-amino-3-{[(1R,2R)-2-hydroxycyclopentyl]sulfanyl}-1H-pyrazolo[3,4-d]pyrimidin-1-yl)-3,4-dihydroxytetrahydrofuran-2-yl]methyl Sulfamate and [(2R,3S,4R,5R)-5-(4-amino-3-{[(1S,2S)-2-hydroxycyclopentyl]sulfanyl}-1H-pyrazolo[3,4-d]pyrimidin-1-yl)-3,4-dihydroxytetrahydrofuran-2-yl]methyl Sulfamate], the IC50 was in the range of 20 to 50 nM. Also, where the note is “read-out: Percent Inhibition”, the inhibition at 0.123 µM was determined as 75%.
In the same order, the values of `Nc1ncnc2c1c(SCc1ccc(Cl)o1)nn2[C@@H]1O[C@H](COS(N)(=O)=O)[C@@H](O)[C@H]1O` [Compound I-73, [(2R,3S,4R,5R)-5-(4-amino-3-{[(5-chloro-2-furyl)methyl]sulfanyl}-1H-pyrazolo[3,4-d]pyrimidin-1-yl)-3,4-dihydroxytetrahydrofuran-2-yl]methyl sulfamate] are 20 to 50 nM and 83%.
On to `Nc1ncnc2c1c(SCc1ccc(C(F)(F)F)cc1)nn2[C@@H]1O[C@H](COS(N)(=O)=O)[C@@H](O)[C@H]1O` [Compound I-33, [(2R,3S,4R,5R)-5-(4-amino-3-{[4-(trifluoromethyl)benzyl]sulfanyl}-1H-pyrazolo[3,4-d]pyrimidin-1-yl)-3,4-dihydroxytetrahydrofuran-2-yl]methyl sulfamate], for which the IC50 lay in the range of 20 to 50 nM. Moreover, the inhibition at 0.123 µM (read-out: Percent Inhibition) worked out at 82%.
The like results for `Nc1ncnc2c1c(Sc1cccc(Cl)c1)nn2[C@@H]1O[C@H](COS(N)(=O)=O)[C@@H](O)[C@H]1O` [Compound I-40, [(2R,3S,4R,5R)-5-{4-amino-3-[(3-chlorophenyl)sulfanyl]-1H-pyrazolo[3,4-d]pyrimidin-1-yl}-3,4-dihydroxytetrahydrofuran-2-yl]methyl sulfamate] were, in that order, below 20 nM and 85%.
Regarding `NC(=S)c1nn([C@@H]2O[C@H](COS(N)(=O)=O)[C@@H](O)[C@H]2O)c2ncnc(N)c12` [Compound I-60, [(2R,3S,4R,5R)-5-(4-amino-3-carbamothioyl-1H-pyrazolo[3,4-d]pyrimidin-1-yl)-3,4-dihydroxytetrahydrofuran-2-yl]methyl Sulfamate], the IC50 was in the range of 50 to 100 nM. The inhibition at 0.123 µM (read-out: Percent Inhibition) is 59%.
For the compound `CCc1nn([C@H]2C[C@H](O)[C@H](COS(N)(=O)=O)O2)c2ncnc(N)c12` [Compound I-212, [(2S,3S,5R)-5-(4-amino-3-ethyl-1H-pyrazolo[3,4-d]pyrimidin-1-yl)-3-hydroxytetrahydrofuran-2-yl]methylsulfamate], the inhibition at 0.111 µM (read-out: Percent Inhibition) stood at 7%.
As for `CC1CC1CSc1nn([C@@H]2O[C@H](COS(N)(=O)=O)[C@@H](O)[C@@H]2F)c2ncnc(N)c12` (stereo partly drawn) [Compound I-140], the IC50 lay in the range of 20 to 50 nM. Further, where the note is “read-out: Percent Inhibition”, the inhibition at 0.111 µM is 75%.
On to `Nc1ncnc2c1c(Sc1ccc(Cl)cn1)nn2[C@H]1C[C@H](O)[C@@H](COS(N)(=O)=O)O1` [Compound I-189, [(2R,3S,5R)-5-{4-amino-3-[(5-chloropyridin-2-yl)sulfanyl]-1H-pyrazolo[3,4-d]pyrimidin-1-yl}-3-hydroxytetrahydrofuran-2-yl]methyl sulfamate], for which the IC50 fell in the range of 50 to 100 nM. Further, under “read-out: Percent Inhibition”, the inhibition at 0.111 µM turned out to be 60%.
On to `Nc1ncnc2c1c(C1CC1)nn2[C@@H]1O[C@H](COS(N)(=O)=O)[C@@H](O)[C@H]1O` [Compound I-26, [(2R,3S,4R,5R)-5-(4-amino-3-cyclopropyl-1H-pyrazolo[3,4-d]pyrimidin-1-yl)-3,4-dihydroxytetrahydrofuran-2-yl]methyl Sulfamate], for which the IC50 was 50 to 100 nM. Further, the inhibition at 0.123 µM (read-out: Percent Inhibition) amounted to 53%.
As to `Cn1cc(Sc2nn([C@@H]3O[C@H](COS(N)(=O)=O)[C@@H](O)[C@H]3O)c3ncnc(N)c23)cn1` [Compound I-61, [(2R,3S,4R,5R)-5-{4-amino-3-[(1-methyl-1H-pyrazol-4-yl)sulfanyl]-1H-pyrazolo[3,4-d]pyrimidin-1-yl}-3,4-dihydroxytetrahydrofuran-2-yl]methyl sulfamate], the IC50 lay within 20 to 50 nM. Also, the inhibition at 0.123 µM (read-out: Percent Inhibition) is 83%.
Take `CCN(CC)CCSc1nn([C@@H]2O[C@H](COS(N)(=O)=O)[C@@H](O)[C@@H]2F)c2ncnc(N)c12` [Compound I-104, [(2R,3R,4S,5R)-5-(4-amino-3-{[2-(diethylamino)ethyl]sulfanyl}-1H-pyrazolo[3,4-d]pyrimidin-1-yl)-4-fluoro-3-hydroxytetrahydrofuran-2-yl]methyl sulfamate]: the IC50 fell in the range of 100 to 500 nM. Moreover, the inhibition at 0.111 µM (read-out: Percent Inhibition) worked out at 38%.
The like results for `Cc1ccccc1Sc1nn([C@H]2C[C@H](O)[C@@H](COS(N)(=O)=O)O2)c2ncnc(N)c12` [Compound I-176, [(2R,3S,5R)-5-{4-amino-3-[(2-methylphenyl)sulfanyl]-1H-pyrazolo[3,4-d]pyrimidin-1-yl}-3-hydroxytetrahydrofuran-2-yl]methyl sulfamate] were, in that order, 100 to 500 nM and 26%.
The like results for `Nc1ncnc2c1c(SC(F)F)nn2[C@H]1C[C@H](O)[C@@H](COS(N)(=O)=O)O1` [Compound I-169, [(2R,3S,5R)-5-{4-amino-3-[(difluoromethyl)sulfanyl]-1H-pyrazolo[3,4-d]pyrimidin-1-yl}-3-hydroxytetrahydrofuran-2-yl]methyl sulfamate] were, in that order, 50 to 100 nM and 57%.
As for `Nc1ncnc2c1c(SCC1=CCCCC1)nn2[C@@H]1O[C@H](COS(N)(=O)=O)[C@@H](O)[C@H]1O` [Compound I-91, [(2R,3S,4R,5R)-5-{4-amino-3-[(cyclohex-1-en-1-ylmethyl)sulfanyl]-1H-pyrazolo[3,4-d]pyrimidin-1-yl}-3,4-dihydroxytetrahydrofuran-2-yl]methyl Sulfamate], the IC50 lay within 20 to 50 nM. Moreover, where the note is “read-out: Percent Inhibition”, the inhibition at 0.123 µM turned out to be 76%.
For `Nc1ncnc2c1c(Sc1ccc(Cl)cn1)nn2[C@@H]1O[C@H](COS(N)(=O)=O)[C@@H](O)[C@@H]1F` [Compound I-146, [(2R,3R,4S,5R)-5-{4-amino-3-[(5-chloropyridin-2-yl)sulfanyl]-1H-pyrazolo[3,4-d]pyrimidin-1-yl}-4-fluoro-3-hydroxytetrahydrofuran-2-yl]methyl sulfamate], the IC50 lay within 20 to 50 nM. The inhibition at 0.111 µM (read-out: Percent Inhibition) was 86%.
Regarding `N#Cc1ccnc(Sc2nn([C@@H]3O[C@H](COS(N)(=O)=O)[C@@H](O)[C@@H]3F)c3ncnc(N)c23)c1` [Compound I-130, [(2R,3R,4S,5R)-5-{4-amino-3-[(4-cyanopyridin-2-yl)sulfanyl]-1H-pyrazolo[3,4-d]pyrimidin-1-yl}-4-fluoro-3-hydroxytetrahydrofuran-2-yl]methyl sulfamate], the IC50 is 20 to 50 nM. The inhibition at 0.111 µM (read-out: Percent Inhibition) was determined as 77%.
Turning to `Nc1ncnc2c1c(SCc1cccnc1)nn2[C@@H]1O[C@H](COS(N)(=O)=O)[C@@H](O)[C@H]1O` [Compound I-45, [(2R,3S,4R,5R)-5-{4-amino-3-[(pyridin-3-ylmethyl)sulfanyl]-1H-pyrazolo[3,4-d]pyrimidin-1-yl}-3,4-dihydroxytetrahydrofuran-2-yl]methyl sulfamate], the IC50 lay in the range of 20 to 50 nM. Also, the inhibition at 0.123 µM (read-out: Percent Inhibition) stood at 73%.
As for `Nc1ncnc2c1c(Sc1nccs1)nn2[C@H]1C[C@H](O)[C@@H](COS(N)(=O)=O)O1` [Compound I-174, {(2R,3S,5R)-5-[4-amino-3-(1,3-thiazol-2-ylsulfanyl)-1H-pyrazolo[3,4-d]pyrimidin-1-yl]-3-hydroxytetrahydrofuran-2-yl}methyl sulfamate], the IC50 was in the range of 20 to 50 nM. Also, the inhibition at 0.111 µM (read-out: Percent Inhibition) turned out to be 73%.
Regarding `CC(C)[C@@H](C)Sc1nn([C@@H]2O[C@H](COS(N)(=O)=O)[C@@H](O)[C@@H]2F)c2ncnc(N)c12` [Compound I-129, [(2R,3R,4S,5R)-5-(4-amino-3-{[(2R)-3-methylbutan-2-yl]sulfanyl}-1H-pyrazolo[3,4-d]pyrimidin-1-yl)-4-fluoro-3-hydroxytetrahydrofuran-2-yl]methyl sulfamate], the 50% inhibitory concentration (IC50) lay within 100 to 500 nM. For the same compound, the inhibition at 0.111 µM (read-out: Percent Inhibition) came to 48%.
As to `COCC#Cc1nn([C@@H]2O[C@H](COS(N)(=O)=O)[C@@H](O)[C@H]2O)c2ncnc(N)c12` [Compound I-11, {(2R,3S,4R,5R)-5-[4-amino-3-(3-methoxyprop-1-yn-1-yl)-1H-pyrazolo[3,4-d]pyrimidin-1-yl]-3,4-dihydroxytetrahydrofuran-2-yl}methyl Sulfamate], the IC50 was above 500 nM. For the same compound, the inhibition at 0.069 µM (Concentration 0.069 μM, read-out: Percent Inhibition) stood at 9%.
`Nc1ncnc2c1c(Sc1cccc(F)c1)nn2[C@@H]1O[C@H](COS(N)(=O)=O)[C@@H](O)[C@@H]1F` [Compound I-116, [(2R,3R,4S,5R)-5-{4-amino-3-[(3-fluorophenyl)sulfanyl]-1H-pyrazolo[3,4-d]pyrimidin-1-yl}-4-fluoro-3-hydroxytetrahydrofuran-2-yl]methyl sulfamate]: the IC50 was 20 to 50 nM. Moreover, under “read-out: Percent Inhibition”, the inhibition at 0.111 µM stood at 75%.
In the case of `Cc1ccc(Sc2nn([C@H]3C[C@H](O)[C@H](COS(N)(=O)=O)O3)c3ncnc(N)c23)cc1` [Compound I-214, [(2S,3S,5R)-5-{4-amino-3-[(4-methylphenyl)sulfanyl]-1H-pyrazolo[3,4-d]pyrimidin-1-yl}-3-hydroxytetrahydrofuran-2-yl]methyl sulfamate], the IC50 lay within 100 to 500 nM. In addition, the inhibition at 0.111 µM (read-out: Percent Inhibition) worked out at 43%.

The record behind these values is patent publication US10865208B2, “ATG7 inhibitors and the uses thereof” (Millennium Pharmaceuticals, Inc., priority 2016, dated 2020).
